Measurements taken from BigSolDB 2.1.

Row | solubility (mole fraction) (in ethanol, 283.15 K) | solubility (mole fraction) (in ethanol, 288.15 K) | solubility (mole fraction) (in ethanol, 293.15 K) | solubility (mole fraction) (in ethanol, 298.15 K) | solubility (mole fraction) (in ethanol, 303.15 K) | solubility (mole fraction) (in ethanol, 308.15 K) | solubility (mole fraction) (in ethanol, 313.15 K) | solubility (mole fraction) (in ethanol, 318.15 K) | solubility (mole fraction) (in ethanol, 323.15 K) | solubility (mole fraction) (in water, 283.15 K) | solubility (mole fraction) (in water, 288.15 K) | solubility (mole fraction) (in water, 293.15 K) | solubility (mole fraction) (in water, 298.15 K) | solubility (mole fraction) (in water, 303.15 K) | solubility (mole fraction) (in water, 308.15 K) | solubility (mole fraction) (in water, 313.15 K) | solubility (mole fraction) (in water, 318.15 K) | solubility (mole fraction) (in water, 323.15 K) | SMILES
1 | 2.21e-05 | 2.58e-05 | 3.15e-05 | 3.83e-05 | 4.45e-05 | 5.2e-05 | 6.32e-05 | 7.71e-05 | 9e-05 | 3.32e-07 | 4.51e-07 | 5.84e-07 | 8.17e-07 | 1.15e-06 | 1.58e-06 | 2.1e-06 | 2.72e-06 | 3.9e-06 | O=C1c2cccc(O)c2C(=O)c2c(O)cc(CO)cc21
2 | 8.37e-05 | 9.39e-05 | 0.000112 | 0.000132 | 0.00015 | 0.00017 | 0.000203 | 0.000231 | 0.000268 | 3.2e-08 | 4.6e-08 | 6e-08 | 8.2e-08 | 1e-07 | 1.32e-07 | 1.79e-07 | 2.15e-07 | 2.79e-07 | Cc1cc(O)c2c(c1)C(=O)c1cc(O)cc(O)c1C2=O
